Test results: article PMC11313180 (International Journal of Molecular Sciences, 2024)
Read-outs that look alike come from different tables or passages of the source.

Experiments:
[1] = test system: class I/IIb HDAC activity in T47D cells; assay: cells; assay type: cell-based, human; conditions: 48 h, read-out: IC50 Cellular HDAC Assay
Description: The cellular HDAC assay was performed based on an assay published by Heltweg and Jung and Ciossek et al.. Breast cancer cell line T-47D (12,000 c/w) was seeded in 96-well tissue culture plates (Corning, Kaiserslautern, Germany) in a total volume of 90 µL of culture medium. After 24 h, cells were incubated 48 h with increasing concentrations of a-lipoic acid. The reaction was started by adding 10 µL of 3 mM Boc-Lys(Ac)-AMC (Bachem, Bubensdorf, Switzerland) and again incubated for 3 h under cell culture conditions. […]

HDAC4 = molecular target: T1, HDAC4 (Homo sapiens, UniProt P56524); assay: Enzyme HDAC inhibition assay, HDAC4; assay type: biochemical; conditions: IC50 ± SEM; three experiments in duplicates; read-out: IC50 HDAC 4
T1 construct: purchased Reaction Biology Corp. KDA-21-279
T1 sequence (P56524 whole entry): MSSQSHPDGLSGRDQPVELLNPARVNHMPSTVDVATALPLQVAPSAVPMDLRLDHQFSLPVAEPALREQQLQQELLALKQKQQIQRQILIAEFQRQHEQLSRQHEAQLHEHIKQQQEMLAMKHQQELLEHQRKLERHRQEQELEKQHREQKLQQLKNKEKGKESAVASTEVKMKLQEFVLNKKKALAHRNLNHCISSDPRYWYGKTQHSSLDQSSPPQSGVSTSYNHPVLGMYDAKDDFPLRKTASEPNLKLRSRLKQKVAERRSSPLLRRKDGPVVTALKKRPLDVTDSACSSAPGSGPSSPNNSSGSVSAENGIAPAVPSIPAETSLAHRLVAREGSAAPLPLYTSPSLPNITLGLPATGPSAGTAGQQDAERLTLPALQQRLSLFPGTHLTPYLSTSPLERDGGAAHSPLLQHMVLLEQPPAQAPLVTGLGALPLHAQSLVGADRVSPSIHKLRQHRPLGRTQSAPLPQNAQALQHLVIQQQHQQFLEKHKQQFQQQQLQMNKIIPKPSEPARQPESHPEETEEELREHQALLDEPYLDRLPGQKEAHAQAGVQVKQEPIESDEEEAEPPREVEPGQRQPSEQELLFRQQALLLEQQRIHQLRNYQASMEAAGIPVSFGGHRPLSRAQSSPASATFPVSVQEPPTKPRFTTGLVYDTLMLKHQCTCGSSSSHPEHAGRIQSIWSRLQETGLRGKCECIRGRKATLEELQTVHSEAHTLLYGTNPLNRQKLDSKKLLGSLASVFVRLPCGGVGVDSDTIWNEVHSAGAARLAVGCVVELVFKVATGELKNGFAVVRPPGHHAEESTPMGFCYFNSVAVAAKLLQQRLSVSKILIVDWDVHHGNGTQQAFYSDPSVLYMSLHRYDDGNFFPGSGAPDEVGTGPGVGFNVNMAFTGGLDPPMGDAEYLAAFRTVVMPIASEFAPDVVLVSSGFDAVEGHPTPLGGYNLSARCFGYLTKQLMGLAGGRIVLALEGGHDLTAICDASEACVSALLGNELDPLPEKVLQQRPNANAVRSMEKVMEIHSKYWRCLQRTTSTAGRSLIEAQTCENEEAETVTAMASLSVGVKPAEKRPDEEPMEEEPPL
Description: (§4) All human recombinant enzymes were purchased from Reaction Biology Corp. (Malvern, PA, USA).

HDAC6 [2] = conditions: ref [21], cited from earlier work
HDAC2 [3] = molecular target: HDAC2 (Homo sapiens, UniProt Q92769); assay: Enzyme HDAC inhibition assay, HDAC2
Sequence of HDAC2 (Homo sapiens, UniProt Q92769) (Q92769 whole entry): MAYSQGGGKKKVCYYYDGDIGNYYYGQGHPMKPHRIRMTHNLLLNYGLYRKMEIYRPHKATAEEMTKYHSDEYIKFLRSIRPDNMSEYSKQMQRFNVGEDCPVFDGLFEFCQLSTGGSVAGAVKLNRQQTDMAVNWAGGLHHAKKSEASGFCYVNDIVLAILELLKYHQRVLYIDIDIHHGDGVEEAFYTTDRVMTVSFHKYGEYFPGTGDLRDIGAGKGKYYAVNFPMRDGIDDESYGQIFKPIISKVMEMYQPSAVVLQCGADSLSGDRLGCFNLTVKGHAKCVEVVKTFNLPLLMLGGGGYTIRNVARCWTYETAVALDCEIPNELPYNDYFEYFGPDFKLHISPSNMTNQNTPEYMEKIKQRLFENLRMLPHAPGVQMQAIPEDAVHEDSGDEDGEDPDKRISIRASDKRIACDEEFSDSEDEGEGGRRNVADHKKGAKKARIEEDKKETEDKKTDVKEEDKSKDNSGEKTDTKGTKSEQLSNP
Description: as §4

HDAC8 [4] = conditions: ref [21], cited from earlier work; for IC50: obtained by fitting Lechner et al. source data to a sigmoidal concentration–effect model, read-out: IC50 HDAC 8, Lechner et al.
HDAC8 [5] = molecular target: T2, HDAC8 (Homo sapiens, UniProt Q9BY41); assay: Enzyme HDAC inhibition assay, HDAC8
T2 sequence (Q9BY41 1-377): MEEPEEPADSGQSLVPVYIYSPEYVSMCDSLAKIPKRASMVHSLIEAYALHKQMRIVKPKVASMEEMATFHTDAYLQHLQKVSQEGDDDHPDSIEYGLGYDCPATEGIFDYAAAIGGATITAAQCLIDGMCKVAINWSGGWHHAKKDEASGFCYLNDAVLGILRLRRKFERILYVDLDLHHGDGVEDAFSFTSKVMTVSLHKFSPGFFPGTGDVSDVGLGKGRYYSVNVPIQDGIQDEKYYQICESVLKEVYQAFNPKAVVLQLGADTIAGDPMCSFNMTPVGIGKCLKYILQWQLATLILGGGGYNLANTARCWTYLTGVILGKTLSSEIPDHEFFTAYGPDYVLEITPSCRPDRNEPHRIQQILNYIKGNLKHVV
Description: as §4

MCF-7 [6] = assay: MTT cell viability assay, MCF-7; assay type: cell-based, human; conditions: 120 h; IC50 ± SEM; read-out: IC50 MCF-7, 120 h MTT assay
Description: (§1) MTT assays were performed as previously described. […] After incubation time, medium was replaced by MTT (solution of 5 mg/mL 3-(4,5-dimethylthiazol-2-yl)-2,5-diphenyl-tetrazoliumbromidin in phosphate buffered saline, Serva, Heidelberg, Germany).

HDAC6 [7] = molecular target: T3, HDAC6 (Homo sapiens, UniProt Q9UBN7); assay: Enzyme HDAC inhibition assay, HDAC6
T3 sequence (Q9UBN7 1-1215): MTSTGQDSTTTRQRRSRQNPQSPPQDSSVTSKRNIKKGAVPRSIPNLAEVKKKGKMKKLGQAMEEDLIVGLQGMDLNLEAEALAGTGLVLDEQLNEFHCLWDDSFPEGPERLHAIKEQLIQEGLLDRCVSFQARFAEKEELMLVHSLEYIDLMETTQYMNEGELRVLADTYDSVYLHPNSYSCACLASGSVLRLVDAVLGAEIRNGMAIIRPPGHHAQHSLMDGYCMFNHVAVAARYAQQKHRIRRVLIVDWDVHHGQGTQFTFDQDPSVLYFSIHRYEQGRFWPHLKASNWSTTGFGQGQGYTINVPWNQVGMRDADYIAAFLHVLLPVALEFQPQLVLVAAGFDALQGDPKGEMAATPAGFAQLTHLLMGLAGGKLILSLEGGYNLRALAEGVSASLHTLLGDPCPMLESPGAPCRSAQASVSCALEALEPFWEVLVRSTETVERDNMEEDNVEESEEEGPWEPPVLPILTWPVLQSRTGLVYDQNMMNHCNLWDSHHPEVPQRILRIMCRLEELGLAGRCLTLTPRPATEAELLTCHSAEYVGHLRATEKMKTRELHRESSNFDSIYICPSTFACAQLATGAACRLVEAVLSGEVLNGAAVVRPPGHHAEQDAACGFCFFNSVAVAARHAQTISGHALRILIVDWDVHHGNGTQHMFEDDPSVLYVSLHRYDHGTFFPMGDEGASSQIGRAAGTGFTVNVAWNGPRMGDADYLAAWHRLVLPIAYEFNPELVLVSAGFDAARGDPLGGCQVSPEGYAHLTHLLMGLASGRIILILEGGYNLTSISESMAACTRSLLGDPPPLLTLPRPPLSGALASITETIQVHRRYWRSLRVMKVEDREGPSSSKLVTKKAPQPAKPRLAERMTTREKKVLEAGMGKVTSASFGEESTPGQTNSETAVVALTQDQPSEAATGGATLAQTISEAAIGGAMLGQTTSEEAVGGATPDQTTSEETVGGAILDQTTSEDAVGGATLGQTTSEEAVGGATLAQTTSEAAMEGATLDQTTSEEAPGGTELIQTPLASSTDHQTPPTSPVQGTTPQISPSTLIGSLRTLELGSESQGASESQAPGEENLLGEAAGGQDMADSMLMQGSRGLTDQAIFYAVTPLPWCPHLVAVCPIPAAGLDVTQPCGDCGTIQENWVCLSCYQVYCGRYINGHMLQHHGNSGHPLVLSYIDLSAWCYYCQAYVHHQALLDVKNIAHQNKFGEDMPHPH
Description: as §4

T47D [8] = assay: MTT cell viability assay, T47D; assay type: cell-based, human; conditions: 120 h; IC50 ± SEM; read-out: IC50 T-47D, 120 h MTT assay
Description: as §1

HDAC2 [9] = conditions: obtained by fitting Lechner et al. source data to a sigmoidal concentration–effect model; ref [21]; read-out: IC50 HDAC 2, Lechner et al.; cited from earlier work
MDA-MB-231 = assay: MTT cell viability assay, MDA-MB-231; assay type: cell-based, human; conditions: 120 h; IC50 ± SEM; read-out: IC50 MDA-MB-231, 120 h MTT assay
Description: MTT assays were performed as previously described. Cell numbers plated differed depending on each incubation time: MDA-MB-231 5000 c/w, MCF-7 5000 c/w (72 h) and 3000 c/w (120 h), T-47D 10,000 c/w (72 h) and 5000 c/w /120 h). After incubation time, medium was replaced by MTT (solution of 5 mg/mL 3-(4,5-dimethylthiazol-2-yl)-2,5-diphenyl-tetrazoliumbromidin in phosphate buffered saline, Serva, Heidelberg, Germany). After 10 min (MCF-7), 20 min (MDA-MB-231), and 30 min (T47D) and dissolving in DMSO (VWR, Langenfeld, Germany), absorbance was measured at 544 nm and 690 nm in a FLUOstar microplate reader (BMG LabTech, Offenburg, Germany).

[10] = test system: caspase 3/7 in T47D cells; assay: Caspase 3/7 activation assay, T47D; assay type: cell-based, human; conditions: 0.5 mM or 1 mM, 24 h
Description: (§2) To analyze the compound-induced activation of capases 3 and 7, the CellEvent caspase 3/7 green detection reagent (Thermo Scientific, Wesel, Germany) was used according to the manufacturer’s instructions. […] After 24 h incubation, medium was removed, and cells were stained with 50 µL of CellEvent caspase 3/7 green detection reagent (2 µM in PBS supplemented with 5% heat-inactivated FBS). Cells were incubated for 30 min at 37 °C in a humidified incubator before imaging by using the Thermo Fisher ArrayScan XTI high content screening (HCS) system with a 10× magnification (Thermo Scientific). Hoechst 33342 was added for nuclei staining.

MCF-7 [11] = assay: Immunoblotting, MCF-7; assay type: cell-based, human; conditions: 48 h
Description: (§3) A quantity of 20 or 40 µg of total protein as well as, from PageRuler Prestained Protein Ladder, 10–180 kDA (Thermo Scientific, Wesel, Germany), were resolved by SDS-Page (12% polyacrylamide gel) and transferred to polyvinylidene fluoride membrane (Millipore Corporation, Billerica, MA, USA). Blots were incubated with primary antibodies against acetylated a -tubulin (Cat. No. sc-23950), a -tubulin (Cat. No. sc-8035) (Santa Cruz Biotechnology, Heidelberg, Germany), acetyl histone h3 (Cat. No. 39140) and histone H3 (Cat. No. NB100-1669), ß-actine (Cat. No. sc-47778), p21 (AF1047), c-myk (Cat. No. MAB3696), APAF1 (Cat. No. MAB868), BIM (Cat. No. NBP1-76936), FOXO1 (Cat. No. C29H4), BCL-2 (Cat. No. AF810), and survivin (Cat. No. AF886). After another one-hour incubation with the appropriate HRP-conjugated secondary antibody, proteins were visualized by Intas Imager (Intas, Göttingen, Germany) using luminol reagent (Santa Cruz Biotechnology, Heidelberg, Germany).

[12] = test system: caspase 3/7 in MCF-7 cells; assay: Caspase 3/7 activation assay, MCF-7; assay type: cell-based, human; conditions: 0.5 mM or 1 mM, 24 h
Description: as §2

T47D [13] = assay: Immunoblotting, T47D; assay type: cell-based, human; conditions: 48 h
Description: as §3

[14] = obtained by fitting Lechner et al. source data to a sigmoidal concentration–effect model, read-out: IC50 HDAC 6, Lechner et al.

O=C(CCCCCCC(=O)Nc1ccccc1)NO [vorinostat]
IC50 ([1]; Homo sapiens, T47D): 0.79 ± 0.07 µM

O=C(O)CCCCC1CCSS1 (racemic) [rac-α-lipoic acid]
IC50 (HDAC4): 262 ± 37.8 µM
IC50 (HDAC6 [2]; [14]): 191 µM
IC50 (HDAC2 [3]; read-out: IC50 HDAC 2, IC50 ± SEM, three experiments in duplicates): 208 ± 4.2 µM
IC50 (HDAC8 [4]): 109 µM
IC50 (HDAC8 [5]; read-out: IC50 HDAC 8, IC50 ± SEM, three experiments in duplicates): 464 ± 83 µM
IC50 (MCF-7 [6]): 454 ± 15.2 µM
IC50 (HDAC6 [7]; read-out: IC50 HDAC 6, IC50 ± SEM, three experiments in duplicates): 15.3 ± 4.6 µM
IC50 (T47D [8]): 373 ± 13.9 µM
IC50 ([1]; T47D cells, substrate Boc-Lys-AC-AMC, IC50 ± SEM, one experiment in triplicates): 1190 ± 67 µM
IC50 (HDAC2 [9]): 391 µM
IC50 (MDA-MB-231): 275 ± 22.5 µM

O=C(O)CCCCC(S)CCS (racemic)
IC50 (HDAC4): 177 ± 17.5 µM
IC50 (HDAC6 [2]; [14]): 1.7 µM
more active than rac-α-lipoic acid at HDAC6, Lechner et al.'s study (HDAC6 [2]): around 100 fold
IC50 (HDAC6 [2]; read-out: IC50 at HDAC6 as reported by Lechner et al.): ~1 µM
IC50 (HDAC2 [3]): 98.1 ± 35.6 µM
IC50 (HDAC8 [4]): 22.3 µM
more active than rac-α-lipoic acid at HDAC8, Lechner et al.'s study (HDAC8 [4]): at least 5 fold
IC50 (HDAC8 [5]): 51.5 ± 10.5 µM
IC50 (HDAC6 [7]): 6.48 ± 2.11 µM
HDAC6 preference (selectivity for HDAC6) (HDAC6 [7]; versus HDAC2, 4 and 8, from Table 1): 8 fold
IC50 (HDAC2 [9]): 27.9 µM

O=C(O)CCCCC1CCSS1 (stereo not drawn) [α-lipoic acid]
caspase activation, T47D [10]: 5–15%
expression of BCL-2, MCF-7 (MCF-7 [11]): loss or massive reduction in expression
caspase activation, MCF-7 [12]: 5–15%
expression of BCL-2, T47D (T47D [13]): loss or massive reduction in expression
